From publication PMC4607639 (Bioorganic & medicinal chemistry letters, 2015) come the findings set out here.

The subject of series [1] is MT-2 human T-cells. Put plainly: Cytotoxicity, inhibition of MT-2 cell growth. The format is cell-based. As to conditions: inhibition of MT-2 cell growth by 50%.
The nature of series [2]: Aqueous solubility, shake-flask procedure. The class given is physicochemical. The following applies: for fold less soluble than the corresponding triazines: pyrimidines 7d, 8c versus triazines 7g, 8f.

Molecules are shown by their SMILES.

Consider `N#Cc1ccc(Nc2ncnc(Nc3c(F)cc4cc(C#N)ccc4c3F)n2)cc1` [Compound 8h], for which the CC50 result in series [1] is listed as “no cytotoxicity”.

As to `Cc1cc2cc(C#N)ccc2c(C)c1Nc1ncnc(Nc2ccc(C#N)cc2)n1` [Compound 8f], the “solubility fold greater than for rilpivirine” value in series [2] (versus rilpivirine) was “ca. 1000 fold”.

Turning to `Cc1cn2cc(C#N)cc2c(C)c1Nc1ccnc(Nc2ccc(C#N)cc2)n1` [Compound 7d], in series [2], the “fold less soluble than the corresponding triazines” value is listed as 2-4 fold.

As for `Cc1cc2cc(C#N)ccc2c(C)c1Nc1ccnc(Nc2ccc(C#N)cc2)n1` [Compound 8c], the “fold less soluble than the corresponding triazines” value in series [2] is given as 2-4 fold.
